{
  "source": "patent US9926354B2",
  "about": "“Amyloid precursor protein (APP) based Ã#-secretase inhibitor peptides, and methods of use” (UNIVERSITY OF SOUTH FLORIDA, priority 2014, dated 2018)",
  "key": {"5XFAD mice": {"tested_on": "5XFAD mice", "experiment": "β-amyloid deposits in 5XFAD mouse brains (4G8 immunohistochemistry, image analysis)", "type": "in vivo", "details": "8 weeks i.p. treatment", "from_the_text": "Percentage of 4G8 immunoreactive areas in regions of interest (RSC, EC and H regions) was quantified by image analysis for each treatment group (B). Data are represented as mean±SD (n=10, 5 female/5 male).\n5XFAD Mice—Transgenic AD mice [5XFAD; B6SJL-Tg(APPSwF1Lon,PSEN1*M146L*L286V) 6799Vas/Mmjax] at 2.5 months of age were obtained from the Jackson Laboratory (Bar Harbor, Me., USA) and housed and maintained in the Animal Facility of College of Medicine at University of South Florida. The mice at 3.5 months of age were treated with TAT-APPsweBBP, TAT peptide (100 nM/kg in 100 μl PBS) or PBS (100 μl) intraperitioneally (i.p.) daily for eight consecutive weeks. The mice were subjected to behavioral testing after 8 week-treatment and euthanized for immunohistochemical, ELISA and WB analysis after completing behavioral tests. All experiments involving mice were in compliance with the U.S. Department of Health and Human Services Guide for the Care and Use of Laboratory Animals and in accordance with the guidelines of the USF Institutional Animal Care and Use Committee.\nImmunohistochemistry—Fixed cell cultures and brain sections were stained with indicated antibodies and then treated with donkey anti-mouse IgG conjugated with Alexa Fluor 488 (1:200) and goat anti-rabbit IgG conjugated with Alexa Fluor 594 (1:200; Invitrogen, Carlsbad, Calif., USA). […]"}, "[1]": {"tested_on": "CHO cells over-expressing human wild-type APP (CHO/APPwt)", "experiment": "Aβ and sAPPα production in cultured media of CHO/APPwt cells by ELISA (24 hours)", "type": "cell-based, Chinese hamster", "details": "20 μg/mL", "procedure": "Cell Culture—Chinese hamster ovary (CHO) cells engineered to express wild-type human APP (CHO/APPwt cells) or Swedish mutant human APP (CHO/APPswe cells) were kindly provided by Dr. Stefanie Hahn and Dr. Sascha Weggen (University of Heinrich Heine, Dusseldorf, Germany). As described previously (Obregon et al., 2012), these cells were cultured in Dulbecco's modified Eagle's medium (DMEM) with 10% fetal bovine serum (FBS), 1 mM sodium pyruvate, and 100 units/mL of penicillin and streptomycin.\nTo confirm the binding of APPsweBBP with BACE1, CHO/APPwt cells were plated in 8-well chambers (5×10^5/well), incubated with TAT-APPsweBBP-biotin or APPsweBBP-biotin at 20 μM for 30 minutes, fixed with 4% paraformaldehyde for 20 minutes, washed and permeabilized with 0.5% Triton X-100. Following application of blocking buffer, these cells were stained with mouse anti-BACE1 and rabbit anti-biotin antibodies overnight at 4° C. for immunocytochemistry analysis. […] The cultured media were collected for Aβ analysis by enzyme-linked immunosorbent assay (ELISA) and sAPPα analysis by ELISA and Western blot (WB). Cell lysates were also prepared for analysis of APP amyloidogenic processing by WB.\nELISA—Mouse brains were homogenized in ice-cold lysis buffer for 30 seconds using a Minilys tissue homogenizer (Bertin Technologies, Montigny-le-Bretonneux, France) set at high speed, allowed to stand for 15 minutes at 4° C., and centrifuged at 15,000 rpm for 30 minutes. Soluble Aβ1-40/42 species and sAPPα were directly detected in cultured cell media or brain homogenates using the Aβ1-40/42 (Invitrogen) and sAPPα ELISA kits (IBL-America, Minneapolis, Minn., USA).\nTo further examine the ability of the Swedish mutant APP BACE1 binding peptide/Tat fusion peptides to decrease Aβ production, CHO cells overexpressing either human wild-type APP (CHO/APPwt cells) or Swedish mutant APP (hereinafter referred to as “CHO/APPswe cells”) are treated with a variety of APP-based BACE1 inhibitor peptides, as shown in Table 1 and Table 2. Aβ production is determined using ELISA."}},
  "data": [
    {"sequence": "YGRKKRRQRRR [TAT, reference compound]", "values": [
      {"measurement": "percentage of 4G8 immunoreactive areas (β-amyloid plaques) in RSC, EC and H regions", "setting": "5XFAD mice", "value": "no significant difference"},
      {"measurement": "Secreted Aβ40 (ng/mg; mean ± SD)", "setting": "[1]", "value": "11.32 ± 0.45", "unit": "ng/mg"},
      {"measurement": "Secreted Aβ42 (ng/mg; mean ± SD)", "setting": "[1]", "value": "1.07 ± 0.057", "unit": "ng/mg"},
      {"measurement": "Secreted sAPPα (ng/mg; mean ± SD)", "setting": "[1]", "value": "4766.34 ± 198.34", "unit": "ng/mg"}
    ]}
  ]
}
